Test results published in PMC13077603, “Fluorine‐18‐Labeled Nucleotide Analogs Targeting Ecto‐5'‐Nucleotidase (CD73) for Positron Emission Tomography Imaging of Solid Tumors” (Angewandte Chemie (International Ed. in English), 2026).

Columns and labels:
[1] = target: T1, Soluble recombinant human CD73 (Homo sapiens, UniProt P21589); experiment: CD73 enzyme inhibition assay, soluble recombinant human CD73; format: biochemical; settings: soluble recombinant human CD73, Km 17 µM, substrate AMP (5 µM)
T1 sequence (P21589 27-549 limits assumed): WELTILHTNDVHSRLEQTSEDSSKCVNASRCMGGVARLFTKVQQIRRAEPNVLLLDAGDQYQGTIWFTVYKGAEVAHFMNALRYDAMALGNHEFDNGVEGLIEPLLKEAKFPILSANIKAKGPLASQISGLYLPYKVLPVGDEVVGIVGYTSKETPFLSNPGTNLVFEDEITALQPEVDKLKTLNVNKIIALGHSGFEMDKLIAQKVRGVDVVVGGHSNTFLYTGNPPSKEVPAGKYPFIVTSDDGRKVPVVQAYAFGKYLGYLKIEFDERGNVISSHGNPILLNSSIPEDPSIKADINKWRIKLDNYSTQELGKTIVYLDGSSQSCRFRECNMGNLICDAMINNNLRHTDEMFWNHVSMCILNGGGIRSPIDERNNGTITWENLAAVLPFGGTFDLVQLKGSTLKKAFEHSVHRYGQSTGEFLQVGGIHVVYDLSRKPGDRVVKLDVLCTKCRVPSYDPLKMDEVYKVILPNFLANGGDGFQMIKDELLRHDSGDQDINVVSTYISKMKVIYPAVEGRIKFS
Description: Both compounds were evaluated for metabolic stability in mouse liver microsomes (MLM) and plasma protein binding (PPB) (Table 1).
The CD73 enzyme inhibition assay of recombinant soluble CD73, membrane-bound human CD73, soluble rat CD73 and mouse CD73 was performed as previously described.^[16,35^]

[2] = logD7.4 determination of radiotracers (PBS/octan-1-ol); format: physicochemical; settings: octan-1-ol/PBS; PBS pH 7.4 / octan-1-ol, radiotracer
Description: The logD 7.4 values of both radiotracers were determined using a previously described method based on their distribution between phosphate‐buffered saline (PBS) and octan‐1‐ol.
Triazole radiotracers (~400 kBq) in PBS buffer (10 µL, pH 7.4) were added to PBS buffer (590 µL, pH 7.4) and octan-1-ol (600 µL). The two-layer mixture was shaken for 3 min on a vortex mixer at r.t. and centrifuged (200 g) for 5 min. The main part of the octanol layer (400 µL) was carefully collected and transferred to a new tube containing PBS buffer (400 µL, pH 7.4). The two-layer mixture was shaken again for 10 min and centrifuged for 5 min (200 g). Three samples were prepared, and two aliquots (á 100 µL) of both layers were measured in a gamma-counter 2480 Wizard2 (Perkin-Elmer, Waltham, USA). The partition coefficient was determined by dividing cpm (octanol) by cpm (PBS) and indicated as logD7.4 (exp.).

MDA‐MB‐231 tumor = experiment: PET imaging in MDA-MB-231 breast cancer xenograft model; format: in vivo, NSG mice
Description: Given the specificity of [^18F]1 and [^18F]2 and the promising in vivo biodistribution profile of [^18F]1, we established a small‐animal human breast tumor xenograft model in NSG mice subcutaneously implanted with MDA‐MB‐231 cells. […] For blocking studies, PSB‐12651 (15, Figure 6) or unlabeled 1 were used.
FIGURE 6 PET imaging data in an MDA‐MB‐231 tumor mouse model. (A). PET images, CT scans, and merged images of [^18F]2 in the MDA‐MB‐231 tumor mouse model 90 min after tracer injection. White arrows mark the tumor positions. (B). Quantitative PET analysis of [^18F]2 uptake: activity concentration of [^18F]2 in muscle and tumor tissues 90 min after tracer injection (left) and respective tumor‐to‐muscle ratio (right, n = 5 tumors). (C). PET‐CT images of [^18F]1 and [^18F]FDG in the MDA‐MB‐231 tumor mouse model, 260 min ([^18F]1), or 75 min ([^18F]FDG) after injection. […] White arrows mark the positions of tumors. (D). Quantitative PET analysis of [^18F]1 uptake: activity concentration of [^18F]1 and [^18F]FDG in muscle and tumor tissues (left) and tumor‐to‐muscle ratios (right) after 260 min. [^18F]1: n = 18 tumors, [^18F]1 plus unlabeled 1 block: n = 8 tumors, [^18F]1 plus compound 15 block: n = 6 tumors, [^18F]FDG: n = 18 tumors E. Ex vivo analysis of [^18F]1 uptake as measured by gamma counter: activity concentrations of [^18F]1 in muscle and tumor tissues after 260 min without and with blocking (left) and tumor‐to‐muscle ratios (right). [^18F]1: n = 6 tumors, [^18F]1 plus unlabeled 1 block: n = 6 tumors, [^18F]1 plus compound 15 block: n = 5 tumors.^# relative to the respective muscle, *relative to [^18F]1 without blocker, relative to the unblocked tumor; *<0.05; **<0.01, ***<0.001,^#<0.05; ^## <0.01, ^###<0.001, <0.05; <0.01, <0.001, ns: non‐significant, unpaired t‐test.
MDA-MB-231 cells were cultivated in DMEM/GlutaMAX, supplemented with 10 % fetal calf serum, 100 U/mL penicillin, and 100 µg/mL streptomycin and L-glutamine to a final concentration of 8 mmol/L. AsPC-1 cells were cultivated in RPMI, supplemented with 10 % fetal calf serum, 100 U/mL penicillin, and 100 µg/mL streptomycin and L-glutamine to a final concentration of 8 mmol/L. 5 x 10^6 MDA-MB-231 or 1x 10^6 AsPC-1 cells were injected subcutaneously into the shoulder region of 7 to 12 weeks old NSG (NOD.Cg-Prkdc^scid Il2rg^tm1Wjl/SzJ) mice (Charles River Laboratories). Two tumors were inoculated per animal, and growth was followed by digital caliper measurements (volume = ½ (length * width^2)).
Adult C57bl/6 (biodistribution study, 19.8±1.3 g) or tumor-bearing NSG mice (22.2±2.2 g) were anesthetized by isoflurane/O2, and one lateral tail vein was cannulated using a 27 G needle. A respective radiotracer (~ 390 kBq/g body weight) was injected as a bolus via the tail vein, and subsequent PET scanning was performed. A ~1000-fold excess of unlabeled JMS0414 (14 for [^18F]MRS-4648 ([^18F]2)), unlabeled PSB-19427 (1), or PSB-12651 (15) (for [^18F]PSB-19427 ([^18F]1)) was injected into a subgroup of tumor-bearing mice 10 min before radiotracer injection in the blocking studies. PET imaging studies were carried out using a submillimeter high resolution (0.7 mm full width at half-maximum) small animal scanner (32 module quadHIDAC, Oxford Positron Systems Ltd., Oxford, UK) with a uniform spatial resolution (<1 mm) over a large cylindrical field (165 mm diameter, 280 mm axial length). […]

SMILES	Ki [1] [nM]	logD [2]	Tumor accumulation (MDA‐MB‐231 tumor; MDA‐MB‐231 model, 90 min PET)	Muscle uptake (MDA‐MB‐231 tumor; MDA‐MB‐231 model, PET, after 260 min)	Tumor uptake (MDA‐MB‐231 tumor; MDA‐MB‐231 tumor, PET, after 260 min)
CCCN(Cc1ccc(-c2cn(CC[18F])nn2)cc1)c1nc(Cl)nc2c1ncn2[C@@H]1O[C@H](COP(=O)(O)CP(=O)(O)O)[C@@H](O)[C@H]1O [[^18F]1, [^18F]-[((2R,3S,4R,5R)-5-{2-chloro-6-[(4-{1-[2-(fluoro)ethyl]-1H-1,2,3-triazol-4-yl}benzyl)-(propyl)amino]-9H-purin-9-yl}-3,4-dihydroxytetrahydrofuran-2-yl)methoxy]methylene-bisphosphonic acid]	1.02 ± 0.11	-0.12	–	–	–
Cn1c(=O)n([C@@H]2O[C@H](COP(=O)(O)CP(=O)(O)O)[C@@H](O)[C@H]2O)cc/c1=N/OCc1ccc(-c2cn(CC[18F])nn2)cc1 [[^18F]2, [^18F]-{[(2R,3S,4R,5R)-5-(4-{[(4-{1-[2-(fluoro)ethyl]-1H-1,2,3-triazol-4-yl}benzyl)-oxy]imino}-3-methyl-2-oxo-3,4-dihydropyrimidin-1(2H)-yl)-3,4-dihydroxytetra-hydrofuran-2-yl]methoxy}methylenebisphosphonic acid]	0.664 ± 0.089	0.74 ± 0.29	very low tumor accumulation	–	–
CCCN(Cc1ccc(-c2cn(CCF)nn2)cc1)c1nc(Cl)nc2c1ncn2[C@@H]1O[C@H](COP(=O)(O)CP(=O)(O)O)[C@@H](O)[C@H]1O [compound 1]	1.02	-0.12 ± 0.03	–	0.86% ± 0.24 % ID/mL	3.60% ± 1.27 %ID/mL
